Laboratory results from ChEMBL document CHEMBL5223082, “Alkyl-Aryl-Vancomycins: Multimodal Glycopeptides with Weak Dependence on the Bacterial Metabolic State” (J Med Chem, 2021).
Converted amounts (≈) assume the structure as drawn.

Key:
Enterococcus [1] = test: Antibacterial activity against Vancomycin-resistant Enterococci NR30909 assessed as inhibition of bacterial growth incubated for 18 to 24 hrs by CLSI microbroth dilution method; type: functional; conditions: time 18-24 hrs
Enterococcus [2] = test: Antibacterial activity against Vancomycin-resistant Enterococci NR30903 assessed as inhibition of bacterial growth incubated for 18 to 24 hrs by CLSI microbroth dilution method; type: functional; conditions: time 18-24 hrs
Enterococcus [3] = test: Antibacterial activity against Vancomycin-resistant Enterococci ATCC 51559 assessed as inhibition of bacterial growth incubated for 18 to 24 hrs by CLSI microbroth dilution method; type: functional; conditions: time 18-24 hrs
Enterococcus [4] = test: Antibacterial activity against Vancomycin-resistant Enterococci ATCC 51575 assessed as inhibition of bacterial growth incubated for 18 to 24 hrs by CLSI microbroth dilution method; type: functional; conditions: time 18-24 hrs
Staphylococcus aureus [5] = test: Antibacterial activity against Methicillin-resistant Staphylococcus aureus ATCC 33591 assessed as inhibition of bacterial growth incubated for 18 to 24 hrs by CLSI microbroth dilution method; type: functional; conditions: time 18-24 hrs
Staphylococcus aureus [6] = test: Antibacterial activity against Vancomycin-resistant Staphylococcus aureus 4 assessed as inhibition of bacterial growth incubated for 18 to 24 hrs by CLSI microbroth dilution method; type: functional; conditions: time 18-24 hrs
Staphylococcus aureus [7] = test: Antibacterial activity against Vancomycin-resistant Staphylococcus aureus 1 assessed as inhibition of bacterial growth incubated for 18 to 24 hrs by CLSI microbroth dilution method; type: functional; conditions: time 18-24 hrs
[8] = Induction of hemolysis in human erythrocytes incubated for 1 hr by microtiter plater reader analysis; type: toxicity, cell-based, Erythrocyte
Staphylococcus aureus [9] = test: Antibacterial activity against Vancomycin-resistant Staphylococcus aureus 12 assessed as inhibition of bacterial growth incubated for 18 to 24 hrs by CLSI microbroth dilution method; type: functional; conditions: time 18-24 hrs
[10] = Induction of hemolysis in human erythrocytes at 250 uM incubated for 1 hr by microtiter plater reader analysis; type: toxicity, cell-based, Erythrocyte; conditions: read-out: Activity
Enterococcus [11] = test: Potency index, ratio of Vancomycin MIC to test compound MIC for antibacterial activity against Vancomycin-resistant Enterococci NR30903; type: functional, NR 30903
Enterococcus [12] = test: Potency index, ratio of Vancomycin MIC to test compound MIC for antibacterial activity against Vancomycin-resistant Enterococci ATCC 51575; type: functional
Enterococcus [13] = test: Potency index, ratio of Vancomycin MIC to test compound MIC for antibacterial activity against Vancomycin-resistant Enterococci ATCC 51559; type: functional
Staphylococcus aureus [14] = test: Potency index, ratio of Vancomycin MIC to test compound MIC for antibacterial activity against Vancomycin-resistant Staphylococcus aureus 12; type: functional
Staphylococcus aureus [15] = test: Potency index, ratio of Vancomycin MIC to test compound MIC for antibacterial activity against Vancomycin-resistant Staphylococcus aureus 1; type: functional
Enterococcus [16] = test: Potency index, ratio of Vancomycin MIC to test compound MIC for antibacterial activity against Vancomycin-resistant Enterococci NR30909; type: functional, NR 30909
Staphylococcus aureus [17] = test: Potency index, ratio of Vancomycin MIC to test compound MIC for antibacterial activity against Vancomycin-resistant Staphylococcus aureus 4; type: functional
Staphylococcus aureus [18] = test: Potency index, ratio of Vancomycin MIC to test compound MIC for antibacterial activity against Methicillin-resistant Staphylococcus aureus ATCC 33591; type: functional

| Structure (SMILES) | MIC (Enterococcus [1]) | MIC (Enterococcus [2]) | MIC (Enterococcus [3]) | MIC (Enterococcus [4]) | MIC (Staphylococcus aureus [5]) | MIC (Staphylococcus aureus [6]) | MIC (Staphylococcus aureus [7]) | HC50 at 1 h [8] | MIC (Staphylococcus aureus [9]) | hemolysis at 1 h, 250 µM [10] | Ratio (Enterococcus [11]) | Ratio (Enterococcus [12]) | Ratio (Enterococcus [13]) | Ratio (Staphylococcus aureus [14]) | Ratio (Staphylococcus aureus [15]) | Ratio (Enterococcus [16]) | Ratio (Staphylococcus aureus [17]) | Ratio (Staphylococcus aureus [18]) |
| --- | --- | --- | --- | --- | --- | --- | --- | --- | --- | --- | --- | --- | --- | --- | --- | --- | --- | --- |
| CCCCCCCCCCNC(=O)C[N+](C)(C)CCCNC(=O)c1ccc(C)cc1 | > 40 µM | > 40 µM | > 40 µM | > 40 µM | – | – | – | – | – | – | – | – | – | – | – | – | – | – |
| CCCCCCCCCCCCCCNC(=O)c1ccc(CN[C@@]2(C)C[C@H](O[C@H]3[C@H](Oc4c5cc6cc4Oc4ccc(cc4Cl)[C@@H](O)[C@@H](NC(=O)[C@@H](CC(C)C)NC)C(=O)N[C@@H](CC(N)=O)C(=O)N[C@H]6C(=O)N[C@H]4C(=O)N[C@H](C(=O)N[C@H](C(=O)O)c6cc(O)cc(O)c6-c6cc4ccc6O)[C@H](O)c4ccc(c(Cl)c4)O5)O[C@H](CO)[C@@H](O)[C@@H]3O)O[C@@H](C)[C@H]2O)cc1 | 4 µM (≈ 7.12 µg/mL) | 2 µM (≈ 3.56 µg/mL) | 4 µM (≈ 7.12 µg/mL) | 4 µM (≈ 7.12 µg/mL) | 4 µM (≈ 7.12 µg/mL) | 4 µM (≈ 7.12 µg/mL) | 8 µM (≈ 14.2 µg/mL) | 27.5 µM | 4 µM (≈ 7.12 µg/mL) | – | – | – | – | – | – | – | – | – |
| CN[C@H](CC(C)C)C(=O)N[C@H]1C(=O)N[C@@H](CC(N)=O)C(=O)N[C@H]2C(=O)N[C@H]3C(=O)N[C@H](C(=O)N[C@H](C(=O)O)c4cc(O)cc(O)c4-c4cc3ccc4O)[C@H](O)c3ccc(c(Cl)c3)Oc3cc2cc(c3O[C@@H]2O[C@H](CO)[C@@H](O)[C@H](O)[C@H]2O[C@H]2C[C@](C)(NCc3ccc(-c4ccc(Cl)cc4)cc3)[C@H](O)[C@H](C)O2)Oc2ccc(cc2Cl)[C@H]1O | 4.2 µM (≈ 6.93 µg/mL) | 4.2 µM (≈ 6.93 µg/mL) | 4.2 µM (≈ 6.93 µg/mL) | 2.1 µM (≈ 3.46 µg/mL) | 0.5 µM (≈ 0.825 µg/mL) | 2.1 µM (≈ 3.46 µg/mL) | 4.2 µM (≈ 6.93 µg/mL) | – | 4.2 µM (≈ 6.93 µg/mL) | – | – | – | – | – | – | – | – | – |
| CN[C@H](CC(C)C)C(=O)N[C@H]1C(=O)N[C@@H](CC(N)=O)C(=O)N[C@H]2C(=O)N[C@H]3C(=O)N[C@H](C(=O)N[C@H](C(=O)O)c4cc(O)cc(O)c4-c4cc3ccc4O)[C@H](O)c3ccc(c(Cl)c3)Oc3cc2cc(c3O[C@@H]2O[C@H](CO)[C@@H](O)[C@H](O)[C@H]2O[C@H]2C[C@](C)(NCc3ccc(C(=O)NCCC[N+](C)(C)Cc4ccccc4)cc3)[C@H](O)[C@H](C)O2)Oc2ccc(cc2Cl)[C@H]1O | > 30 µM | > 30 µM | > 30 µM | > 30 µM | 0.9 µM | 30.5 µM | 30.5 µM | > 250 µM | 30.5 µM | 0% | – | – | – | – | – | – | – | – |
| CCCCCCCCCCNC(=O)c1ccc(CN[C@@]2(C)C[C@H](O[C@H]3[C@H](Oc4c5cc6cc4Oc4ccc(cc4Cl)[C@@H](O)[C@@H](NC(=O)[C@@H](CC(C)C)NC)C(=O)N[C@@H](CC(N)=O)C(=O)N[C@H]6C(=O)N[C@H]4C(=O)N[C@H](C(=O)N[C@H](C(=O)O)c6cc(O)cc(O)c6-c6cc4ccc6O)[C@H](O)c4ccc(c(Cl)c4)O5)O[C@H](CO)[C@@H](O)[C@@H]3O)O[C@@H](C)[C@H]2O)cc1 | 2 µM (≈ 3.45 µg/mL) | 2 µM (≈ 3.45 µg/mL) | 2 µM (≈ 3.45 µg/mL) | 0.2 µM (≈ 0.345 µg/mL) | 2 µM (≈ 3.45 µg/mL) | 1 µM (≈ 1.72 µg/mL) | 2 µM (≈ 3.45 µg/mL) | 62.5 µM | 2 µM (≈ 3.45 µg/mL) | – | 670 | 670 | 670 | 390 | 390 | 670 | 390 | – |
| CCCCCCCCNC(=O)C[N+](C)(C)CCCNC(=O)c1ccc(CN[C@@]2(C)C[C@H](O[C@H]3[C@H](Oc4c5cc6cc4Oc4ccc(cc4Cl)[C@@H](O)[C@@H](NC(=O)[C@@H](CC(C)C)NC)C(=O)N[C@@H](CC(N)=O)C(=O)N[C@H]6C(=O)N[C@H]4C(=O)N[C@H](C(=O)N[C@H](C(=O)O)c6cc(O)cc(O)c6-c6cc4ccc6O)[C@H](O)c4ccc(c(Cl)c4)O5)O[C@H](CO)[C@@H](O)[C@@H]3O)O[C@@H](C)[C@H]2O)cc1 | 0.9 µM | 0.9 µM | 14.7 µM | 14.7 µM | 0.4 µM | 3.7 µM | 1.8 µM | > 250 µM | 3.7 µM | 1% | 750 | 750 | 750 | 750 | 750 | 750 | 750 | – |
| CN[C@H](CC(C)C)C(=O)N[C@H]1C(=O)N[C@@H](CC(N)=O)C(=O)N[C@H]2C(=O)N[C@H]3C(=O)N[C@H](C(=O)N[C@H](C(=O)O)c4cc(O)cc(O)c4-c4cc3ccc4O)[C@H](O)c3ccc(c(Cl)c3)Oc3cc2cc(c3O[C@@H]2O[C@H](CO)[C@@H](O)[C@H](O)[C@H]2O[C@H]2C[C@](C)(NCc3ccc(C(=O)NCCC[N+](C)(C)Cc4ccc(-c5ccccc5)cc4)cc3)[C@H](O)[C@H](C)O2)Oc2ccc(cc2Cl)[C@H]1O | 3.7 µM | 7.3 µM | 14.7 µM | 14.7 µM | 0.5 µM | 7.3 µM | 7.3 µM | > 250 µM | 3.7 µM | 0% | 47 | 47 | 47 | 47 | 47 | 47 | 47 | – |
| CN[C@H](CC(C)C)C(=O)N[C@H]1C(=O)N[C@@H](CC(N)=O)C(=O)N[C@H]2C(=O)N[C@H]3C(=O)N[C@H](C(=O)N[C@H](C(=O)O)c4cc(O)cc(O)c4-c4cc3ccc4O)[C@H](O)c3ccc(c(Cl)c3)Oc3cc2cc(c3O[C@@H]2O[C@H](CO)[C@@H](O)[C@H](O)[C@H]2O[C@H]2C[C@](C)(NCc3ccc(C(=O)NCCC[N+](C)(C)Cc4cccc5ccccc45)cc3)[C@H](O)[C@H](C)O2)Oc2ccc(cc2Cl)[C@H]1O | 7.4 µM | 14.9 µM | > 30 µM | > 30 µM | 0.9 µM | 14.9 µM | 29.8 µM | > 250 µM | 3.7 µM | 0% | – | – | – | – | – | – | – | – |
| CCCCCCCCCCCCNC(=O)C[N+](C)(C)CCCNC(=O)c1ccc(CN[C@@]2(C)C[C@H](O[C@H]3[C@H](Oc4c5cc6cc4Oc4ccc(cc4Cl)[C@@H](O)[C@@H](NC(=O)[C@@H](CC(C)C)NC)C(=O)N[C@@H](CC(N)=O)C(=O)N[C@H]6C(=O)N[C@H]4C(=O)N[C@H](C(=O)N[C@H](C(=O)O)c6cc(O)cc(O)c6-c6cc4ccc6O)[C@H](O)c4ccc(c(Cl)c4)O5)O[C@H](CO)[C@@H](O)[C@@H]3O)O[C@@H](C)[C@H]2O)cc1 | 0.9 µM | 0.9 µM | 1.8 µM | 1.8 µM | 1.8 µM | 0.9 µM | 0.9 µM | 72 µM | 0.9 µM | – | 780 | 780 | 780 | 780 | 780 | 780 | 780 | – |
| CCCCCCCCCCCCCCNC(=O)C[N+](C)(C)CCCNC(=O)c1ccc(CN[C@@]2(C)C[C@H](O[C@H]3[C@H](Oc4c5cc6cc4Oc4ccc(cc4Cl)[C@@H](O)[C@@H](NC(=O)[C@@H](CC(C)C)NC)C(=O)N[C@@H](CC(N)=O)C(=O)N[C@H]6C(=O)N[C@H]4C(=O)N[C@H](C(=O)N[C@H](C(=O)O)c6cc(O)cc(O)c6-c6cc4ccc6O)[C@H](O)c4ccc(c(Cl)c4)O5)O[C@H](CO)[C@@H](O)[C@@H]3O)O[C@@H](C)[C@H]2O)cc1 | 0.9 µM | 0.9 µM | 1.8 µM | 1.8 µM | 1.8 µM | 1.8 µM | 1.8 µM | 35 µM | 1.8 µM | – | 780 | 780 | 780 | 780 | 780 | 780 | 780 | – |
| CCCCCCCCNC(=O)c1ccc(CN[C@@]2(C)C[C@H](O[C@H]3[C@H](Oc4c5cc6cc4Oc4ccc(cc4Cl)[C@@H](O)[C@@H](NC(=O)[C@@H](CC(C)C)NC)C(=O)N[C@@H](CC(N)=O)C(=O)N[C@H]6C(=O)N[C@H]4C(=O)N[C@H](C(=O)N[C@H](C(=O)O)c6cc(O)cc(O)c6-c6cc4ccc6O)[C@H](O)c4ccc(c(Cl)c4)O5)O[C@H](CO)[C@@H](O)[C@@H]3O)O[C@@H](C)[C@H]2O)cc1 | 2.1 µM (≈ 3.56 µg/mL) | 4.2 µM (≈ 7.12 µg/mL) | 8.3 µM (≈ 14.1 µg/mL) | 1 µM (≈ 1.69 µg/mL) | 1 µM (≈ 1.69 µg/mL) | 2.1 µM (≈ 3.56 µg/mL) | 4.2 µM (≈ 7.12 µg/mL) | > 250 µM | 0.3 µM (≈ 0.508 µg/mL) | – | 166 | 166 | 166 | 166 | 166 | 166 | 166 | 2 |
